The values below come from PubChem BioAssay (NCI).

Among the test systems are SW-620 colon; ACHN renal; SF-268 CNS; SF-295 CNS; RPMI-8226 leukemia; CCRF-CEM leukemia; OVCAR-5 ovarian; UO-31 renal; IGROV1 ovarian; LOX IMVI melanoma.
What all share (experiment): inhibition of tumour cell growth, NCI panel, 48 h

The structures appear in SMILES notation.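 Five concentrations, 48 hours, 96-well plates. At the GI50, growth is halved. Definition used: TGI = concentration required for complete inhibition of growth.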

On to `CC1(O)COCCCCOc2c(CN)cccc2NC(=O)c2nc(cnc2N)-c2ccc(cc2)S(=O)(=O)C(C)(C)C1` (centres undefined), for which the GI50 was 0.42 µM in the assay with SW-620 colon; 0.042 µM in the assay with ACHN renal; 1.51 µM with SF-268 CNS; 1.43 µM in the assay with SF-295 CNS; 1.2 µM in the assay on RPMI-8226 leukemia; under 0.01 µM with CCRF-CEM leukemia. The GI50 in the assay with OVCAR-5 ovarian is 2.04 µM; in the assay with UO-31 renal, 1.06 µM; with IGROV1 ovarian it was 1.28 µM. Further, the TGI in the assay with SW-620 colon is 1.98 µM; in the assay on ACHN renal it was 2.06 µM; with SF-268 CNS it was 3.19 µM; with SF-295 CNS, 2.84 µM; with RPMI-8226 leukemia it was 3.5 µM; with CCRF-CEM leukemia, 1.25 µM. In addition, the TGI in the assay on OVCAR-5 ovarian was 3.56 µM; in the assay with UO-31 renal, 2.31 µM; in the assay with IGROV1 ovarian, 2.7 µM.
As to `Cc1ccc(N=NC(C2=NC(=O)CS2)c2nc3ccccc3[nH]2)cc1` (centres undefined), the TGI in the assay on SW-620 colon, in the assay on ACHN renal, in the assay with SF-268 CNS, in the assay on SF-295 CNS, in the assay on RPMI-8226 leukemia and with CCRF-CEM leukemia was over 100 µM in each case. Moreover, the TGI with OVCAR-5 ovarian, with UO-31 renal and in the assay with IGROV1 ovarian was over 100 µM each time.
Turning to `CC1(C=O)CCC23COC4(CCC5C6(C)CCC(OC7OCC(OC8OC(CO)C(O)C(OC9OC(CO)C(O)C(O)C9O)C8OC8OCC(O)C(O)C8O)C(O)C7OC7OC(CO)C(O)C(O)C7O)C(C)(C)C6CCC5(C)C4(C)CC2O)C3C1` (centres undefined), the TGI in the assay on SW-620 colon was found to be 3.14 µM; in the assay with ACHN renal, 2.57 µM; in the assay with SF-268 CNS, 2.47 µM; with SF-295 CNS, 2.23 µM; with RPMI-8226 leukemia it was 4.45 µM; with CCRF-CEM leukemia, 0.789 µM. The TGI came to 2.55 µM in the assay with OVCAR-5 ovarian, 2.8 µM with UO-31 renal and 2.88 µM in the assay on IGROV1 ovarian.
Turning to `CO/N=C(\C)c1cccc(Nc2nc3ccccc3c3occc23)c1`, the TGI stood at 27.9 µM in the assay on ACHN renal; 32.5 µM in the assay with SF-268 CNS; 25.9 µM with SF-295 CNS; 40.8 µM with RPMI-8226 leukemia; 37.7 µM in the assay with CCRF-CEM leukemia; 27.6 µM in the assay on OVCAR-5 ovarian. This compound also yielded a TGI with LOX IMVI melanoma of 31.6 µM.
As for `CCc1ccc2c(c1)C(=O)c1c-2n(CCCN)c(=O)c2cc([N+](=O)[O-])ccc12`, the GI50 is 1.51 µM in the assay on ACHN renal; 1.07 µM in the assay on SF-295 CNS; 2.07 µM in the assay with OVCAR-5 ovarian; 1.19 µM in the assay on LOX IMVI melanoma; 1.38 µM in the assay on UO-31 renal; 1.22 µM with IGROV1 ovarian. In addition, the TGI in the assay on ACHN renal is 2.84 µM; in the assay on SF-295 CNS, 2.47 µM; in the assay with OVCAR-5 ovarian, 3.59 µM; in the assay on LOX IMVI melanoma it was 2.62 µM; in the assay on UO-31 renal, 2.69 µM; in the assay with IGROV1 ovarian it was 2.56 µM.
In the case of `C[N+](C)(C)CCN[N+]1(C)CCCc2ccccc21` (centres undefined), the TGI in the assay with SW-620 colon is over 100 µM; in the assay with ACHN renal, over 100 µM; in the assay with SF-268 CNS, over 100 µM; in the assay with SF-295 CNS, over 100 µM; with RPMI-8226 leukemia it was 92.9 µM; with OVCAR-5 ovarian, over 100 µM. For the same compound, the TGI in the assay on LOX IMVI melanoma, in the assay with UO-31 renal and with IGROV1 ovarian was over 100 µM throughout.
As to `c1ccc([P+](c2ccccc2)(c2ccccc2)c2ccc(-c3ccc([P+](c4ccccc4)(c4ccccc4)c4ccccc4)cc3)cc2)cc1`, the TGI was over 100 µM in the assay with SW-620 colon; 73.3 µM in the assay with ACHN renal; over 100 µM in the assay on SF-268 CNS; 76.9 µM in the assay with SF-295 CNS; over 100 µM in the assay with RPMI-8226 leukemia; over 100 µM in the assay with CCRF-CEM leukemia. Further, the TGI was over 100 µM in the assay with OVCAR-5 ovarian, 51.9 µM in the assay with LOX IMVI melanoma and 13.4 µM in the assay on IGROV1 ovarian.
As for `CCOC(=O)Nc1cc2c(c(N)n1)N=C(c1ccc3ccccc3c1)CN2`, the TGI in the assay with SW-620 colon is 31.4 µM; in the assay on ACHN renal it was over 83.3 µM; in the assay on SF-268 CNS, over 86.1 µM; in the assay on CCRF-CEM leukemia, 0.0944 µM; in the assay on OVCAR-5 ovarian, over 56.8 µM; in the assay on LOX IMVI melanoma it was 8.1 µM. Also, the TGI with UO-31 renal was over 62.9 µM; in the assay on IGROV1 ovarian, over 100 µM.
With `N=C(N)SCc1cccc([N+](=O)[O-])c1`, the TGI was over 100 µM with SW-620 colon; over 100 µM with SF-268 CNS; over 100 µM in the assay with SF-295 CNS; 59.1 µM in the assay with RPMI-8226 leukemia; over 85.9 µM in the assay on CCRF-CEM leukemia; over 100 µM with OVCAR-5 ovarian. Further, the TGI in the assay on LOX IMVI melanoma was over 100 µM; with UO-31 renal it was over 77.8 µM; in the assay on IGROV1 ovarian, over 100 µM.
Take `O=C(NC(Cc1ccc(I)cc1)C(=O)O)c1ccc(Cl)cc1` (centres undefined): the TGI with SW-620 colon, in the assay on SF-268 CNS, in the assay on SF-295 CNS, in the assay with RPMI-8226 leukemia, with CCRF-CEM leukemia and in the assay with OVCAR-5 ovarian was over 100 µM in each case. Also, the TGI with LOX IMVI melanoma, in the assay on UO-31 renal and in the assay with IGROV1 ovarian was over 100 µM each time.
